Assay results published in US12139492B2 (Endotarget Inc., priority 2021, dated 2024).
Read-outs that look alike come from different tables or passages of the source.

Assays:
BTK [1] = biological target: T1, BTK (Homo sapiens, UniProt Q06187); assay: BTK degradation, DC50 and Dmax of Table 1 (cell line not given); type: cell-based; design: endogenous in cells; details: for DC50: concentration giving 50% reduction of BTK expression level
Mino cells = assay: Antiproliferative effect, MTS cell viability assay, Mino cells; type: cell-based; details: Mino mantle cell lymphoma cells, read-out: IC50 (anti-proliferation) Mino cells
Summary of the method: (§1)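 MTS read-out, A490 of formazan from metabolically active cells; compound 0–10 μM (0, 0.001, 0.01, 0.1, 1, 10 μM), 72 h exposure.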

JeKo-1 cells = assay: Antiproliferative effect, MTS cell viability assay, JeKo-1 cells; type: cell-based; details: JeKo-1 mantle cell lymphoma cells, read-out: IC50 (anti-proliferation) JeKO-1 cells
Summary of the method: as §1

BTK [2] = biological target: T1, BTK; assay: Degradation of BTK protein in Namalwa cells (Western blot; DC50, Dmax); details: for DC50: read-out: DC50 (BTK degradation), concentration giving 50% reduction of BTK expression level; for Dmax: read-out: Dmax (BTK degradation)

T1 sequence (Q06187 whole entry): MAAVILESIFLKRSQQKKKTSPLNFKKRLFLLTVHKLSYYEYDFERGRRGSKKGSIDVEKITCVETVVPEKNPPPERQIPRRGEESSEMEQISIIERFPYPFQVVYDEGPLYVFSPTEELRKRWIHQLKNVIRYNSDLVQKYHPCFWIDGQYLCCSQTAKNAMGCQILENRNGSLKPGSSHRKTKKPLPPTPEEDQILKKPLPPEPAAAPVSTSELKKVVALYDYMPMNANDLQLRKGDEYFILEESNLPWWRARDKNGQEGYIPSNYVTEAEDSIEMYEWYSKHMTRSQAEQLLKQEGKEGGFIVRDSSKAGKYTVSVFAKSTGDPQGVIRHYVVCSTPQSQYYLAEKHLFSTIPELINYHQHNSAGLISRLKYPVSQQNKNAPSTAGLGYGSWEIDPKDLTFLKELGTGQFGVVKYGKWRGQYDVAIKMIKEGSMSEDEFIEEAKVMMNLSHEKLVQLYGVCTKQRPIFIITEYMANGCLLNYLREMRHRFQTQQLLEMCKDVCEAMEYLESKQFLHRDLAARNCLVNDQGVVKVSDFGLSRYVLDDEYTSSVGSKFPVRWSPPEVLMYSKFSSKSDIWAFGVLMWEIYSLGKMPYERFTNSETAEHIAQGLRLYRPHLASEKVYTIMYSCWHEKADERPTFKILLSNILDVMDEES

Molecule	Dmax (BTK [1]) [%]	DC50 (BTK [2]; cell line not given) [nM]	Dmax (BTK [2]) [%]	Dmax (BTK degradation) (BTK [2]; cell line not given)	Dmax (BTK degradation) (BTK [1])	DC50 (BTK [1]) [nM]	IC50 (Mino cells) [nM]	IC50 (JeKo-1 cells) [nM]	IC50 (Mino cells; Homo sapiens, MINO) [nM]	IC50 (JeKo-1 cells; Homo sapiens) [nM]
3-(5-(4-(2-(2-(3-(4-amino-3-(4- phenoxyphenyl)-1H-pyrazolo[3,4- d]pyrimidin-1-yl)piperidin-1- yl)ethoxy)ethyl)piperidin-1-yl)-1- oxoisindolin-2-yl)piperidine-2,6- dione [Compound 24]	–	–	–	–	A (A >90%)	10 to 50	1000 to 10000	1000 to 10000	–	–
Nc1ncnc2c1c(-c1ccc(Oc3ccccc3)cc1)nn2C1CCCN(CCOCCOCCN2CCN(c3ccc4c(c3)C(=O)N(C3CCC(=O)NC3=O)C4=O)CC2)C1 (centres unmarked) [Compound 3, 5-(4-(2-(2-(2-(3-(4-amino-3-(4-phenoxyphenyl)-1H-pyrazolo[3,4-d]pyrimidin-1-yl)piperidin-1-yl)ethoxy)ethoxy)ethyl)piperazin-1-yl)-2-(2,6-dioxopiperidin-3-yl)isoindoline-1,3-dione]	> 90	–	–	–	–	< 10	–	–	1000 to 10000	1000 to 10000
Nc1ncnc2c1c(-c1ccc(Oc3ccccc3)cc1)nn2C1CCN(C2CCN(CCCN3CCN(c4ccc(N5CCC(=O)NC5=O)cc4)CC3)CC2)CC1 [Compound 572, 1-(4-(4-(3-(4-(4-amino-3-(4-phenoxyphenyl)-1H-pyrazolo[3,4-d]pyrimidin-1-yl)-[1,4′-bipiperidin]-1′-yl)propyl)piperazin-1-yl)phenyl)dihydropyrimidine-2,4(1H,3H)-dione]	–	10 to 50	> 90	–	–	–	–	–	< 1000	< 1000
Nc1ncnc2c1c(-c1ccc(Oc3ccccc3)cc1)nn2C1CCN(C2CCN(CC3CCN(c4ccc(N5CCC(=O)NC5=O)cc4)CC3)C2)CC1 (centres unmarked) [Compound 573, 1-(4-(4-((3-(4-(4-amino-3-(4-phenoxyphenyl)-1H-pyrazolo[3,4-d]pyrimidin-1-yl)piperidin-1-yl)pyrrolidin-1-yl)methyl)piperidin-1-yl)phenyl)dihydropyrimidine-2,4(1H,3H)-dione]	–	< 10	> 75	–	–	–	–	–	1000 to 10000	< 1000
Nc1ncnc2c1c(-c1ccc(Oc3ccccc3)cc1)nn2C1CCN(C2CCN(CCN3CCC(c4ccc(N5CCC(=O)NC5=O)cc4)CC3)C2)CC1 (centres unmarked) [Compound 574, 1-(4-(1-(2-(3-(4-(4-amino-3-(4-phenoxyphenyl)-1H-pyrazolo[3,4-d]pyrimidin-1-yl)piperidin-1-yl)pyrrolidin-1-yl)ethyl)piperidin-4-yl)phenyl)dihydropyrimidine-2,4(1H,3H)-dione]	–	10 to 50	> 90	–	–	–	–	–	1000 to 10000	1000 to 10000
Nc1ncnc2c1c(-c1ccc(Oc3ccccc3)cc1)nn2C1CCN(C2CCN(CCN3CCN(c4ccc(N5CCC(=O)NC5=O)cc4)CC3)C2)CC1 (centres unmarked) [Compound 575, 1-(4-(4-(2-(3-(4-(4-amino-3-(4-phenoxyphenyl)-1H-pyrazolo[3,4-d]pyrimidin-1-yl)piperidin-1-yl)pyrrolidin-1-yl)ethyl)piperazin-1-yl)phenyl)dihydropyrimidine-2,4(1H,3H)-dione]	–	< 10	> 90	–	–	–	–	–	1000 to 10000	1000 to 10000
Nc1ncnc2c1c(-c1ccc(Oc3ccccc3)cc1)nn2C1CCN(C2CCN(CCCN3CCC(c4ccc(N5CCC(=O)NC5=O)cc4)CC3)C2)CC1 (centres unmarked) [Compound 576, 1-(4-(1-(3-(3-(4-(4-amino-3-(4-phenoxyphenyl)-1H-pyrazolo[3,4-d]pyrimidin-1-yl)piperidin-1-yl)pyrrolidin-1-yl)propyl)piperidin-4-yl)phenyl)dihydropyrimidine-2,4(1H,3H)-dione]	–	< 10	> 90	–	–	–	–	–	1000 to 10000	< 1000
(7S)-7-(1-((1-(4-(2-(2,6- dioxopiperidin-3-yl)-1,3- dioxoisoindolin-5-yl)piperazine-1- carbonyl)piperidin-1- yl)methyl)piperidin-4-yl)-2-(4- phenoxyphenyl)-4,5,6,7- tetrahydropyrazolo[1,5-a]pyrimidine- 3-carboxamide [Compound 397]	–	> 50	–	B (B >75%)	–	–	> 10000	1000 to 10000	–	–

Second part, led by results:

Dmax (BTK [1]) [%]	DC50 (BTK [2]; cell line not given) [nM]	Dmax (BTK [2]) [%]	Dmax (BTK degradation) (BTK [2]; cell line not given)	Molecule	Dmax (BTK degradation) (BTK [1])	DC50 (BTK [1]) [nM]	IC50 (Mino cells) [nM]	IC50 (JeKo-1 cells) [nM]	IC50 (Mino cells; Homo sapiens, MINO) [nM]	IC50 (JeKo-1 cells; Homo sapiens) [nM]
–	< 10	> 90	–	Nc1ncnc2c1c(-c1ccc(Oc3ccccc3)cc1)nn2C1CCN(C2CCN(CCCN3CCN(c4ccc(N5CCC(=O)NC5=O)cc4)CC3)C2)CC1 (centres unmarked) [Compound 577, 1-(4-(4-(3-(3-(4-(4-amino-3-(4-phenoxyphenyl)-1H-pyrazolo[3,4-d]pyrimidin-1-yl)piperidin-1-yl)pyrrolidin-1-yl)propyl)piperazin-1-yl)phenyl)dihydropyrimidine-2,4(1H,3H)-dione]	–	–	–	–	1000 to 10000	1000 to 10000
–	10 to 50	> 90	–	Nc1ncnc2c1c(-c1ccc(Oc3ccccc3)cc1)nn2C1CCN(C2CCN(CC3CCN(c4ccc(NC5CCC(=O)NC5=O)cc4)CC3)CC2)CC1 (centres unmarked) [Compound 578, 3-((4-(4-((4-(4-amino-3-(4-phenoxyphenyl)-1H-pyrazolo[3,4-d]pyrimidin-1-yl)-[1,4′-bipiperidin]-1′-yl)methyl)piperidin-1-yl)phenyl)amino)piperidine-2,6-dione]	–	–	–	–	1000 to 10000	1000 to 10000
–	10 to 50	> 90	–	Nc1ncnc2c1c(-c1ccc(Oc3ccccc3)cc1)nn2C1CCN(C2CCN(CCN3CCC(c4ccc(NC5CCC(=O)NC5=O)cc4)CC3)CC2)CC1 (centres unmarked) [Compound 579, 3-((4-(1-(2-(4-(4-amino-3-(4-phenoxyphenyl)-1H-pyrazolo[3,4-d]pyrimidin-1-yl)-[1,4′-bipiperidin]-1′-yl)ethyl)piperidin-4-yl)phenyl)amino)piperidine-2,6-dione]	–	–	–	–	< 1000	< 1000
–	< 10	> 90	–	Nc1ncnc2c1c(-c1ccc(Oc3ccccc3)cc1)nn2C1CCN(C2CCN(CCCN3CCC(c4ccc(NC5CCC(=O)NC5=O)cc4)CC3)CC2)CC1 (centres unmarked) [Compound 580, 3-((4-(1-(3-(4-(4-amino-3-(4-phenoxyphenyl)-1H-pyrazolo[3,4-d]pyrimidin-1-yl)-[1,4′-bipiperidin]-1′-yl)propyl)piperidin-4-yl)phenyl)amino)piperidine-2,6-dione]	–	–	–	–	< 1000	< 1000
–	< 10	> 90	–	Nc1ncnc2c1c(-c1ccc(Oc3ccccc3)cc1)nn2C1CCN(C2CCN(CCN3CCN(c4ccc(NC5CCC(=O)NC5=O)cc4)CC3)CC2)CC1 (centres unmarked) [Compound 581, 3-((4-(4-(2-(4-(4-amino-3-(4-phenoxyphenyl)-1H-pyrazolo[3,4-d]pyrimidin-1-yl)-[1,4′-bipiperidin]-1′-yl)ethyl)piperazin-1-yl)phenyl)amino)piperidine-2,6-dione]	–	–	–	–	< 1000	< 1000
–	10 to 50	> 90	–	Nc1ncnc2c1c(-c1ccc(Oc3ccccc3)cc1)nn2C1CCN(CC2CCN(CCCN3CCN(c4ccc(N5CCC(=O)NC5=O)cc4)CC3)CC2)CC1 [Compound 582, 1-(4-(4-(3-(4-((4-(4-amino-3-(4-phenoxyphenyl)-1H-pyrazolo[3,4-d]pyrimidin-1-yl)piperidin-1-yl)methyl)piperidin-1-yl)propyl)piperazin-1-yl)phenyl)dihydropyrimidine-2,4(1H,3H)-dione]	–	–	–	–	< 1000	1000 to 10000
